Data set [1] relates to creatine-phosphokinase. The following applies: various buffers and pHs, cited from earlier work.
A short description of data set [2]: Pharmacological results of the single components. The note with it: in the absence of the other component.
Data set [3] concerns male albino mice. The data set is described as follows: Acute toxicity (LD50) in male albino mice. In kind it is in vivo. The following applies: Tainter and Miller, ± standard deviation.
The nature of data set [4]: Acute toxicity (LD50) in male albino mice. In kind it is in vivo. The following applies: mouse, in vivo, Tainter and Miller, ± standard deviation.

Where two headings read alike, the source gives them in different places.

`Nc1ncnc2c1ncn2[C@@H]1O[C@H](COP(=O)(O)OP(=O)(O)O)[C@@H](O)[C@H]1O` [ADP, adenosine-diphosphate, reference compound]: the Rmax in data set [1] is 1.7 μmols/minute/μg of protein. In data set [1] (read-out: Michaelis constant for ADP), the Km was 800 to 1000 µM.

Usually LD50 stands for the dose at which mortality reaches 50%. In the case of “CPK: enzyme found in striated and cardiac muscle and cerebral tissue; protein molecule of molecular weight 8.1×10^4; crystalline form from rabbit skeletal muscle”, in data set [2], the “pharmacological results of the component alone” value was “Neither the substrate (CP) alone (i.e. in the absence of the administration of the enzyme which brings about its conversion) nor the enzyme (CPK) alone gives the pharmacological results”. Further, in data set [3], the LD50 is over 100 mg/kg.

Consider `CN(CC(=O)O)C(=N)NP(=O)(O)O` [CP, creatine-phosphate], for which, in data set [2], the “pharmacological results of the component alone” value is “Neither the substrate (CP) alone (i.e. in the absence of the administration of the enzyme which brings about its conversion) nor the enzyme (CPK) alone gives the pharmacological results”. Also, the Rmax in data set [1] was 1.1 μmols/minute/μg of protein. Besides, the Km in data set [1] (read-out: Michaelis constant for creatine-phosphate) is 5000 µM. For the same molecule, in data set [4], the LD50 turned out to be 3500 ± 120 mg/kg.

The values above are taken from patent US4371521A, “Pharmaceutical composition for retarding excessive platelet aggregation” (priority 1973, dated 1983).
